One block for each compound: values may come before it. Peptide text beside a SMILES is read from it. * marks the point of attachment. Palmitoyl = CCCCCCCCCCCCCCCC(=O)*
Legend:
[1] = tested on: Normal human keratinocytes and fibroblasts; assay: Cell viability by conventional MTT test; type: cell-based; conditions: maximum concentration used (45 ppm)
Experimental: Normal human keratinocytes and fibroblasts are cultured in a conventional medium in the presence or absence of various concentrations (10-45 ppm) of peptide Pal-GQPR (SEQ ID NO:2). After 24 hours the cells are rinsed in the same medium without Pal-GQPR (SEQ ID NO:2) and, after being subjected to irradiation of 35 mJ/cm^2, the same cells are returned to the culture for 48 hours, without Pal-GQPR (SEQ ID NO:2) or in its presence in the same concentrations as during the initial culture period. Cellular IL-6 is then determined using a standard ELISA test kit.
In parallel with this, to make certain that the concentration reductions observed were not due to cell mortality induced by the peptide itself, viability of the cells was verified by the conventional MTT test.

[2] = molecular target: Converting enzyme (EC 3.4.15.1) (Homo sapiens, UniProt P12821); assay: ACE-inhibition test (FAPGG decomposition, ΔOD at 340 nm; derived from Sigma Diagnostics method No. 305-UV); type: biochemical; conditions: for ΔOD: 340 nm, mean of five tests
Description: The test is derived from Sigma Diagnostics method No. 305-UV.
Converting enzyme (EC 3.4.15.1) decomposes synthetic tripeptide FAPGG into FAP+glycylglycine. The change in optical density (ΔOD) at 340 nm is directly proportional to disappearance of the FAPGG, which allows a quantification of the converting enzyme activity.
The inhibiting effect of a compound is investigated according to the same principle, but in the presence of various concentrations of the test compounds.

[3] = molecular target: angiotensin converting enzyme (EC 3.4.15.1); assay: cell-based or functional assay
H-Val-Trp = tested on: T1, H-Val-Trp
T1 sequence: VW

Sequence of Converting enzyme (EC 3.4.15.1) (P12821 30-1306): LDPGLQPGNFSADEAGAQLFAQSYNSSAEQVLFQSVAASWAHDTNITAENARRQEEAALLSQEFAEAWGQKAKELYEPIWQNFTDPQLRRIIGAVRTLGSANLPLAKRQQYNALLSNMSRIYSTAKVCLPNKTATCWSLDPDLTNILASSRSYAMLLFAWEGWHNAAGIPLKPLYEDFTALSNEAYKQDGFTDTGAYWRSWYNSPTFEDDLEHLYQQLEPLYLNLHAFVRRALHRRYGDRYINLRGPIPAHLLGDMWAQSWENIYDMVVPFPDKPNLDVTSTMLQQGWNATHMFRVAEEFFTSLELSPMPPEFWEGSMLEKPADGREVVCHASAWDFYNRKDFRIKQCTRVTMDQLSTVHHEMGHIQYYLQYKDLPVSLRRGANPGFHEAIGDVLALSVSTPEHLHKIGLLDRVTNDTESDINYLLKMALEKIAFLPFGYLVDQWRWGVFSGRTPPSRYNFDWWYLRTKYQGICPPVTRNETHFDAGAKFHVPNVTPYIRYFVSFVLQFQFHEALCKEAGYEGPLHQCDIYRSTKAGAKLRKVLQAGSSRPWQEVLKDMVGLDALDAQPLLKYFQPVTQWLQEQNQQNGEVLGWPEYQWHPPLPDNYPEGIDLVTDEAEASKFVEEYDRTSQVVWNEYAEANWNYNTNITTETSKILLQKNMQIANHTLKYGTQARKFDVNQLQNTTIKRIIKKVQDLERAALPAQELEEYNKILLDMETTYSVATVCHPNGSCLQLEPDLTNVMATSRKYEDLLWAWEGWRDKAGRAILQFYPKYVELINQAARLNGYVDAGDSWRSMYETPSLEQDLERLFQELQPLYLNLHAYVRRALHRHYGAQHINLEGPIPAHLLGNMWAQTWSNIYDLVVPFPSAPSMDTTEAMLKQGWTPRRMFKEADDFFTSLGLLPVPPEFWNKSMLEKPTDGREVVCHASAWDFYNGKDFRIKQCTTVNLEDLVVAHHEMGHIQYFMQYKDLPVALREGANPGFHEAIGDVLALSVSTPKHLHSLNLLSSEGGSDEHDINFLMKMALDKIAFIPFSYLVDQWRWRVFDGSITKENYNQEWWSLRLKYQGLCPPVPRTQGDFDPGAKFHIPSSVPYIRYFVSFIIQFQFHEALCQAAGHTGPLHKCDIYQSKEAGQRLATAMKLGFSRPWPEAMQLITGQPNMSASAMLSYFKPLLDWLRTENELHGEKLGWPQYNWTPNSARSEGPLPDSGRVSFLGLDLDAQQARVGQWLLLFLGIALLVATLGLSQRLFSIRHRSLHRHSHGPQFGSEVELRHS

Compound: CCCCCCCCCCCCCCCC(=O)NCC(=O)N[C@@H](CCC(N)=O)C(=O)N1CCC[C@H]1C(=O)N[C@@H](CCCNC(=N)N)C(=O)O [N-Palmitoyl-Gly-Gln-Pro-Arg] (Palmitoyl-GQPR-OH)
Cytotoxic effect (cell viability, MTT) [1]: does not exert any cytotoxic effect

Inhibition ([2]; peptide 10 ppm): 27.3%
ΔOD ([2]; peptide 10 ppm): 0.080
Inhibition ([2]; peptide 50 ppm): 83.4%
ΔOD ([2]; peptide 50 ppm): 0.018
Compound: H-Val-Trp

Inhibition (converting enzyme activity, FAPGG hydrolysis, ΔOD at 340 nm), peptide at 10 ppm [3]: 27.3%
Inhibition (converting enzyme activity, FAPGG hydrolysis, ΔOD at 340 nm), peptide at 50 ppm [3]: 83.4%
Compound: H-Val-Trp (peptide)

Compound: angiotensin converting enzyme (EC 3.4.15.1)
ΔOD (340 nm, FAPGG hydrolysis by converting enzyme), peptide at 10 ppm (H-Val-Trp): 0.08 ΔOD
ΔOD (340 nm, FAPGG hydrolysis by converting enzyme), peptide at 50 ppm (H-Val-Trp): 0.018 ΔOD
